Data set [1] relates to Erwinia amylovora. Description: Erwinia bioassay: culture filtrates or test solutions in agar well, zone of inhibition. In kind it is cell-based. The settings on record: 300 μL per well, 28° C., 48 hours. On the procedure: Assays of Culture Filtrates, Live Bacteria, and FVG-Analogs for Antibiosis Activity against Erwinia amylovora and Other Bacterial Species and Strains: The potential antibiosis activities of various P. fluorescens isolates, their culture filtrates, and the FVG analogs prepared as described above were tested against Erwinia amylovora and a number of other bacterial species and strains listed in Table 4. For this purpose, cryovial stocks of the test organisms (including P. fluorescens lines from the stocks described above) were prepared from bacterial cultures grown in LB liquid medium. For this specific experimental purpose, aliquots of these cultures were stored in cryovials at −80° C. in LB medium containing glycerol at a final concentration of 15% (v/v).
Bacterial lawns of test organisms were prepared from cells grown by inoculating 10 μL of the 15% glycerol stocks into 5 mL of liquid LB Medium. The cells were allowed to multiply overnight at 28° C. with shaking (200 rpm). The resulting bacterial suspension was adjusted with water to an optical density of 0.2 at 600 nm (Spectronic® 20 Spectrophotometer; Milton Roy Co., Rochester N.Y.). 300 μL aliquots of the diluted suspension were spread onto the agar surfaces of Petri plates (100×15 mm) containing […] of 925 Minimal Medium (prepared and amended as described below). […]

Data set [2] relates to seeds of grassy weeds. The conditions noted are these: as disclosed in U.S. patent application Ser. No. 12/567,590; cited from earlier work.
The conditions of data set [3]: as described in U.S. patent application Ser. No. 12/567,590; cited from earlier work.

Turning to `NOCC(=O)O` [AOA, 2-aminooxyacetic acid], in data set [1] (AOA solution, pH 6.4), the “Growth inhibition of E. amylovora (in words)” value is on record as “effective growth inhibitor”.
On to `NCCOC=CC(N)C(=O)O` (stereo not shown) [AVG, 2-amino-4-aminoethoxybut-3-enoic acid], for which the “Inhibitory effect on growth of E. amylovora (in words)” value in data set [1] (commercial sample of pure AVG-HCl, 3 mM) was “inhibitory effect of AVG on E. amylovora has subsequently been confirmed”.
On to `NC(C=CONC=O)C(=O)O` (stereo not shown) [FVG, 2-amino-4-formylaminooxybut-3-enoic acid], for which, in data set [2], the “Germination arrest in the seeds of grassy weeds (in words)” value is “ability to produce germination arrest”. For the same compound, in data set [3], the “Solubility in organic solvents (in words)” value is “insoluble or sparingly soluble in organic solvents”.
